From patent publication US20230278972A1, “SUBSTITUTED HALOALKYL SULFONANILIDE HERBICIDES” (FMC Corporation, priority 2020, published 2023)

What was measured:
Format in all cases: in vivo
[1] = system: corn (Zea mays); experiment: Test A1 preemergence, corn
Procedure, shortened: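 Herbicidal response was scored on plants treated either preemergence, by directed spray onto soil of a loam–sand blend after sowing, or postemergence on potted plants at the one- to two-leaf stage, 2–10 cm high. Test chemicals were carried in a non-phytotoxic solvent mix with surfactant.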

[2] = system: Oat, Wild (wild oat, Avena fatua); experiment: Test A1 preemergence, Oat, Wild
Procedure, shortened: (§1)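 Both timings started from seed in a loam-sand blend. Preemergence pots got a directed soil application immediately; postemergence pots were sprayed when seedlings had one or two leaves and stood 2–10 cm. Each compound was prepared in a non-phytotoxic solvent plus surfactant.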

[3] = system: soybean (Glycine max); experiment: Test A1 preemergence, soybean
Procedure, shortened: as §1

[4] = system: wheat (Triticum aestivum); experiment: Test A1 preemergence, wheat
Procedure, shortened: as §1

[5] = system: corn (Zea mays); experiment: Test A1 postemergence, corn; details: Postemergence
Procedure, shortened: as §1

[6] = system: soybean (Glycine max); experiment: Test A1 postemergence, soybean; details: Postemergence
Procedure, shortened: (§2)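 Test compounds were formulated in a non-phytotoxic solvent mixture containing a surfactant. For preemergence, seeds sown in a loam soil–sand blend received a directed soil spray. For postemergence, potted plants in the same soil, 2 to 10 cm tall at the one- to two-leaf stage, were sprayed.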

[7] = system: wheat (Triticum aestivum); experiment: Test A1 postemergence, wheat; details: Postemergence
Procedure, shortened: as §2

[8] = system: horseweed (Erigeron canadensis); experiment: Test A1 postemergence, horseweed; details: Postemergence
Procedure, shortened: as §2

[9] = system: ducksalad (Heteranthera limosa); experiment: Test B1 flooded paddy test, ducksalad; details: 250 g ai/ha, Flood, applied to paddy water, 2-leaf stage, visually evaluated after 10 to 14 days
Description: A dash (-) response means no test result.

[10] = 31 g ai/ha, 0 to 100 scale (0 no effect, 100 complete control)
[11] = 125 g ai/ha, 0 to 100 scale, 0 no effect, 100 complete control
[12] = 31 g ai/ha, 0 to 100 scale (0 no effect, 100 complete control), 10 days

## Cc1c(NS(=O)(=O)C(F)(F)F)cc(C(=O)N2CCC(Cl)CC2)c(C)c1C [Compound 356]
[1]; [10]
  Plant response rating, Corn: 0
[1]; [11]
  Plant response rating, Corn: 90
[2]; [10]
  Plant response rating, Oat, Wild: 0
[2]; [11]
  Plant response rating, Oat, Wild: 20
[3]; [10]
  Plant response rating, Soybean: 0
[3]; [11]
  Plant response rating, Soybean: 80
[4]; [10]
  Plant response rating, Wheat: 0
[4]; [11]
  Plant response rating, Wheat: 30
[5]; [12]
  Plant response rating, Corn: 0
[5]; 125 g ai/ha, 0 to 100 scale
  Plant response rating, Corn: 40
[6]; [12]
  Plant response rating, Soybean: 50
[6]; 125 g ai/ha, 0 to 100 scale
  Plant response rating, Soybean: 80
[7]; [12]
  Plant response rating, Wheat: 0
[7]; 125 g ai/ha, 0 to 100 scale
  Plant response rating, Wheat: 30
[8]; [12]
  Plant response rating, Horseweed: 50
[8]; 125 g ai/ha, 0 to 100 scale
  Plant response rating, Horseweed: 80
[9]
  Plant response rating, Ducksalad (0 to 100 scale, 0 is no effect, 100 is complete control): 45
